Measured values taken from patent publication US20260001928A1 (CORTERIA PHARMACEUTICALS, priority 2022, published 2026).
*1 amine or outer side, *2 acyl side, *3 side chain or, on linkers, in order; H or OH if unused. Where a SMILES comes first, the peptide text is derived from it. Side-chain parts run from the residue outwards. [ ]: non-standard residue; d: D form. The star is where a group is joined. C20 diacid = O=C(O)CCCCCCCCCCCCCCCCCCC(=O)*; C18 diacid = O=C(O)CCCCCCCCCCCCCCCCC(=O)*; C16 diacid = O=C(O)CCCCCCCCCCCCCCC(=O)*; γGlu = O=C(O)[C@H](CCC(=O)[*:2])N[*:1]; C14 diacid = O=C(O)CCCCCCCCCCCCC(=O)*; αMeK = C[C@](N)(CCCCN)C(=O)O; Pentanoyl = CCCCC(=O)*; AEEA = NCCOCCOCC(=O)O; Aib = CC(C)(N)C(=O)O

How the values were obtained:
[1] = target: T1, human CRF2a receptor (Homo sapiens, UniProt Q13324); assay: Activity at human CRF2a receptor, cAMP functional assay in TeloHEAC cells; assay type: cell-based; conditions: TeloHEAC cells stably expressing human CRF2a receptor, relative to urocortin 2 (100 nM = 100%)
T1 construct: expressed in transfected cells; host or cells: TeloHEAC cells
T1 sequence (Q13324 1-411): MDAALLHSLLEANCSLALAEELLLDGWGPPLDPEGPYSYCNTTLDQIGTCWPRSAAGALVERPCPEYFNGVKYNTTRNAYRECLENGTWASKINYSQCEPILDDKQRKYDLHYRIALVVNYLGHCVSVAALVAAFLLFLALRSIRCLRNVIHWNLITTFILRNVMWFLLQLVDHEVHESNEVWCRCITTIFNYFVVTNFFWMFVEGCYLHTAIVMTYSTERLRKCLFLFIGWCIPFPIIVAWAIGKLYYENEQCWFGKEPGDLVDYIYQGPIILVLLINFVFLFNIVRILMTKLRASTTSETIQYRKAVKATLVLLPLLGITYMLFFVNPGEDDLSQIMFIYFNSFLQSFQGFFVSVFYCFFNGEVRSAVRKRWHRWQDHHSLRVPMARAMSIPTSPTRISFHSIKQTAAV
Outline: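 TeloHEAC cells stably expressing human CRF2a (10000 cells/well, suspended in HBSS/20 mM HEPES with 2 mM IBMX) were exposed to compounds for 30 min at 37 °C. cAMP was read as the 665/620 nm fluorescence ratio after 1 h at room temperature. EC50 was derived relative to 100 nM urocortin 2, set as 100%.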

[2] = target: T2, CFR1R receptor (Homo sapiens, UniProt P34998); assay: Activity at anti-target CFR1R receptor, cAMP assay in CRF1R-overexpression CHO-K1 cells; assay type: cell-based; conditions: 100% = Sauvagine at 100 nM; for EC50: cAMP
T2 construct: host or cells: CHO-K1 (clone 2)
T2 sequence (P34998 24-415): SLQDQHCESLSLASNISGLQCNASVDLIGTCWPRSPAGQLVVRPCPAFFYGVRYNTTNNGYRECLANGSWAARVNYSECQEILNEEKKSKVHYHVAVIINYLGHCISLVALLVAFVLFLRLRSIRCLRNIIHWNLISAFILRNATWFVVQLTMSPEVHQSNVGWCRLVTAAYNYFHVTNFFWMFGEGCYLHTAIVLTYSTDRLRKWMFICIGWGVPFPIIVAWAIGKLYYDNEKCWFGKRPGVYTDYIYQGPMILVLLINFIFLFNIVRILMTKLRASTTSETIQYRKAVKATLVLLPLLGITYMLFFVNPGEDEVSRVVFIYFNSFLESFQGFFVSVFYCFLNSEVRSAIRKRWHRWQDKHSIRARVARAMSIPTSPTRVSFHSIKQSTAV
Outline: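 Run as for the TeloHAEC line, except the full-activation control well received Sauvagine (100 nM) and final density was 4000 cells/well. Cells from clone 2 came from frozen aliquots of near-confluent cultures.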

| SMILES | EC50 [1] [nM] | Emax (% I) [2] [% I] | EC50 [2] [nM] |
| --- | --- | --- | --- |
| CC[C@H](C)[C@H](NC(C)=O)C(=O)N[C@H](C(=O)N[C@@H](CC(C)C)C(=O)N[C@@H](CO)C(=O)N[C@@H](CC(C)C)C(=O)N[C@@H](CC(=O)O)C(=O)N[C@@H](C(=O)N1CCC[C@H]1C(=O)N[C@H](C(=O)N[C@@H](CCCCN)C(=O)N[C@@H](CC(C)C)C(=O)N[C@@H](CCCCNC(=O)CC[C@H](NC(=O)CCCCCCCCCCCCCCC(=O)O)C(=O)O)C(=O)N[C@@H](CCCCN)C(=O)N[C@H](C(=O)N[C@@H](CC(C)C)C(=O)N[C@@H](CC(C)C)C(=O)N[C@@H](CCC(=O)O)C(=O)N[C@@H](CCC(N)=O)C(=O)N[C@@H](CCC(=O)O)C(=O)N[C@@H](CCCCN)C(=O)N[C@@H](CCC(N)=O)C(=O)N[C@@H](CCCCN)C(=O)N[C@@H](CCCCN)C(=O)N[C@@H](CCC(N)=O)C(=O)N[C@@H](C)C(=O)N[C@@H](CCC(=O)O)C(=O)N[C@@H](CCC(N)=O)C(=O)N[C@@H](C)C(=O)N[C@@H](CCC(=O)O)C(=O)N[C@H](C(=O)N[C@@H](CC(N)=O)C(=O)NC(C)(C)C(=O)N[C@@H](CCC(N)=O)C(=O)N[C@H](C(=O)N[C@@H](CC(C)C)C(=O)N[C@@H](C)C(=O)N[C@@H](CCC(N)=O)C(=O)N[C@H](C(N)=O)C(C)C)[C@@H](C)CC)[C@@H](C)O)[C@@H](C)CC)[C@@H](C)CC)C(C)C)C(C)C [compound 167] (Ac-IVLSLD[dV]PIKLK([γGlu-C16 diacid])KILLEQEKQKKQAEQAETN[Aib]QILAQV-NH2) | 1.15 | 7 | > 250 |
| CC[C@H](C)[C@H](NC(C)=O)C(=O)N[C@H](C(=O)N[C@@H](CC(C)C)C(=O)N[C@@H](CO)C(=O)N[C@@H](CC(C)C)C(=O)N[C@@H](CC(=O)O)C(=O)N[C@@H](C(=O)N1CCC[C@H]1C(=O)N[C@H](C(=O)NCC(=O)N[C@@H](CC(C)C)C(=O)N[C@@H](CCCCNC(=O)CC[C@H](NC(=O)CCCCCCCCCCCCCCCCCCC(=O)O)C(=O)O)C(=O)N[C@@H](CCCCN)C(=O)N[C@H](C(=O)N[C@@H](CC(C)C)C(=O)N[C@@H](CC(C)C)C(=O)N[C@@H](CCC(=O)O)C(=O)N[C@@H](CCC(N)=O)C(=O)N[C@@H](CCC(=O)O)C(=O)N[C@@H](CCCCN)C(=O)N[C@@H](CCC(N)=O)C(=O)N[C@@H](CCCCN)C(=O)N[C@@H](CCCCN)C(=O)N[C@@H](CCC(N)=O)C(=O)N[C@@H](CCCNC(=N)N)C(=O)N[C@@H](CCC(=O)O)C(=O)N[C@@H](CCC(N)=O)C(=O)N[C@@H](C)C(=O)N[C@@H](CCC(=O)O)C(=O)N[C@H](C(=O)N[C@@H](CC(N)=O)C(=O)NC(C)(C)C(=O)N[C@@H](CCC(N)=O)C(=O)N[C@H](C(=O)N[C@@H](CC(C)C)C(=O)N[C@@H](C)C(=O)N[C@@H](CCC(N)=O)C(=O)N[C@H](C(N)=O)C(C)C)[C@@H](C)CC)[C@@H](C)O)[C@@H](C)CC)[C@@H](C)CC)C(C)C)C(C)C [compound 226] (Ac-IVLSLD[dV]PIGLK([γGlu-C20 diacid])KILLEQEKQKKQREQAETN[Aib]QILAQV-NH2) | 0.18 | 82 | 42.2 |
| CCCCC(=O)N[C@H](C(=O)N[C@@H](CC(C)C)C(=O)N[C@@H](CO)C(=O)N[C@@H](CC(C)C)C(=O)N[C@@H](CC(=O)O)C(=O)N[C@@H](C(=O)N1CCC[C@H]1C(=O)N[C@H](C(=O)N[C@@H](CCCCN)C(=O)N[C@@H](CC(C)C)C(=O)N[C@@H](CCCCNC(=O)COCCOCCNC(=O)COCCOCCNC(=O)CC[C@H](NC(=O)CCCCCCCCCCCCC(=O)O)C(=O)O)C(=O)N[C@@H](CCCCN)C(=O)N[C@H](C(=O)N[C@@H](CC(C)C)C(=O)N[C@@H](CC(C)C)C(=O)N[C@@H](CCC(=O)O)C(=O)N[C@@H](CCC(N)=O)C(=O)N[C@@H](CCC(=O)O)C(=O)N[C@@H](CCCCN)C(=O)N[C@@H](CCC(N)=O)C(=O)N[C@@H](CCCCN)C(=O)N[C@@H](CCCCN)C(=O)N[C@@H](CCC(N)=O)C(=O)N[C@@H](CCCNC(=N)N)C(=O)N[C@@H](CCC(=O)O)C(=O)N[C@@H](CCC(N)=O)C(=O)N[C@@H](C)C(=O)N[C@@H](CCC(=O)O)C(=O)N[C@H](C(=O)N[C@@H](CC(N)=O)C(=O)NC(C)(C)C(=O)N[C@@H](CCC(N)=O)C(=O)N[C@H](C(=O)N[C@@H](CC(C)C)C(=O)N[C@@H](C)C(=O)N[C@@H](CCC(N)=O)C(=O)N[C@H](C(N)=O)C(C)C)[C@@H](C)CC)[C@@H](C)O)[C@@H](C)CC)[C@@H](C)CC)C(C)C)C(C)C [compound 180] (Pentanoyl-VLSLD[dV]PIKLK([AEEA-AEEA-γGlu-C14 diacid])KILLEQEKQKKQREQAETN[Aib]QILAQV-NH2) | 10.7 | 2 | > 250 |
| CC[C@H](C)[C@H](NC(=O)[C@H](CCC(N)=O)NC(=O)C(C)(C)NC(=O)[C@H](CC(N)=O)NC(=O)[C@@H](NC(=O)[C@H](CCC(=O)O)NC(=O)[C@H](C)NC(=O)[C@H](CCC(N)=O)NC(=O)[C@H](CCC(=O)O)NC(=O)[C@H](CCCNC(=N)N)NC(=O)[C@H](CCC(N)=O)NC(=O)[C@H](CCCCN)NC(=O)[C@H](CCCCN)NC(=O)[C@H](CCC(N)=O)NC(=O)[C@H](CCCCN)NC(=O)[C@H](CCC(=O)O)NC(=O)[C@H](CCC(N)=O)NC(=O)[C@H](CCC(=O)O)NC(=O)[C@H](CC(C)C)NC(=O)[C@H](CC(C)C)NC(=O)[C@@H](NC(=O)[C@H](CCCCN)NC(=O)[C@H](CCCCNC(=O)COCCOCCNC(=O)COCCOCCNC(=O)CC[C@H](NC(=O)CCCCCCCCCCCCCCCCC(=O)O)C(=O)O)NC(=O)[C@H](CC(C)C)NC(=O)[C@H](CCCCN)NC(=O)[C@@H](NC(=O)[C@@H]1CCCN1C(=O)[C@H](NC(=O)[C@H](CC(=O)O)NC(=O)[C@H](CC(C)C)NC(=O)[C@H](CO)NC(=O)[C@H](CC(C)C)NC(=O)[C@@H](NC(C)=O)C(C)C)C(C)C)[C@@H](C)CC)[C@@H](C)CC)[C@@H](C)O)C(=O)N[C@@H](CC(C)C)C(=O)N[C@@H](C)C(=O)N[C@@H](CCC(N)=O)C(=O)N[C@H](C(N)=O)C(C)C [compound 99] (Ac-VLSLD[dV]PIKLK([AEEA-AEEA-γGlu-C18 diacid])KILLEQEKQKKQREQAETN[Aib]QILAQV-NH2) | 6.07 | 0 | > 250 |
| CC[C@H](C)[C@H](NC(C)=O)C(=O)N[C@H](C(=O)N[C@@H](CC(C)C)C(=O)N[C@@H](CO)C(=O)N[C@@H](CC(C)C)C(=O)N[C@@H](CC(=O)O)C(=O)N[C@@H](C(=O)N1CCC[C@H]1C(=O)N[C@H](C(=O)N[C@@H](CCCCN)C(=O)N[C@@H](CC(C)C)C(=O)N[C@@H](CCCCNC(=O)COCCOCCNC(=O)COCCOCCNC(=O)CC[C@H](NC(=O)CCCCCCCCCCCCCCCCC(=O)O)C(=O)O)C(=O)N[C@@H](CCCCN)C(=O)N[C@H](C(=O)N[C@@H](CC(C)C)C(=O)N[C@@H](CC(C)C)C(=O)N[C@@H](CCC(=O)O)C(=O)N[C@@H](CCC(N)=O)C(=O)N[C@@H](CCC(=O)O)C(=O)N[C@@H](CCCCN)C(=O)N[C@@H](CCC(N)=O)C(=O)N[C@@H](CCCCN)C(=O)N[C@@H](CCCCN)C(=O)N[C@@H](CCC(N)=O)C(=O)N[C@@H](CCCNC(=N)N)C(=O)N[C@@H](CCC(=O)O)C(=O)N[C@@H](CCC(N)=O)C(=O)N[C@@H](C)C(=O)N[C@@H](CCC(=O)O)C(=O)N[C@H](C(=O)N[C@@H](CC(N)=O)C(=O)N[C@@](C)(CCCCN)C(=O)N[C@@H](CCC(N)=O)C(=O)N[C@H](C(=O)N[C@@H](CC(C)C)C(=O)N[C@@H](C)C(=O)N[C@@H](CCC(N)=O)C(=O)N[C@H](C(N)=O)C(C)C)[C@@H](C)CC)[C@@H](C)O)[C@@H](C)CC)[C@@H](C)CC)C(C)C)C(C)C [compound 106] (Ac-IVLSLD[dV]PIKLK([AEEA-AEEA-γGlu-C18 diacid])KILLEQEKQKKQREQAETN[αMeK]QILAQV-NH2) | 0.35 | 6 | > 250 |
